Laboratory results taken from EP4578444A1, “APPLICATION OF BETA-CARYOPHYLLENE FOR TARGETED EPIGENETIC REGULATION AND POTENTIAL PREVENTION OF WATER-OSMOTIC CONDITIONS OF THE MUCOUS MEMBRANES AND EPITHELIA” (SkyLab AG, priority 2023, dated 2025).
In brackets after ≈: the same amount, converted by molar mass.

Experiments:
[1] = MTT cytotoxicity / cell viability of keratinocytes; type: cell-based; settings: keratinocytes, throughout the selected concentration range (0.01-0.3 wt.%), threshold value of 70%, read-out: viability of skin and epithelial keratinocytes
Method: (§1) Beta-caryophyllene was studied for cytotoxicity and assessed for viability of skin and mucous membrane keratinocytes to determine the maximum permissible concentration for external and local application.
(§2) Cell viability was determined colorimetrically using MTT stain (Sigma Chemical, St. Louis, Mo.). The preparation was treated for the test in dimethylsulphoxide culture medium and added to a 96-well plate at serial dilutions ranging from 1.000 to 0.0032 mg/mL using a dilution factor of 3.16. Pre-culture was carried out for 48 hours before the test. Then MTT was added to the culture at a concentration of 0.75 mg/mL (100 µl/well) and incubated for another 4 hours. The contents of the well were removed, and 100 µl of isopropanol was added to solubilize the formed formazan crystals. Absorbance was determined in each well at 570 nm using a Multiskan GO monochromator (Thermo Scientific, Finland). Cell viability was expressed as a percentage and calculated by the equation: % Viable cells = (Absorbance of evaluated product incubated cells)/(Control absorbance) × 100 [formula]
(§3) Three biological replicates were made. Statistical data processing was carried out to calculate the mean, standard deviation, and trend for each biological replicate. For the statistical evaluation ANOVA test was used allowing the measurement of variation of the results, comparing the data between all the groups. […]

[2] = test system: skin and mucous membrane keratinocytes; experiment: MTT cytotoxicity / cell viability of keratinocytes; type: cell-based; settings: 70% cell survival
Method: as §1, §2, §3

In the case of C=C1CC/C=C(\C)CC[C@@H]2[C@@H]1CC2(C)C [Beta-caryophyllene], the viability [1] is reported as > 70% and the EC70 [2] is reported as 0.3165 mg/mL (≈ 1550 µM).
